Consider 1 compound from ChEMBL document CHEMBL1125852, “Synthesis of 4-Amino-1-(-D-ribofuranosyl)pyrrolo[2,3-d]pyridazine; an entry into a novel series of adenosine analogs” (1991).

Experiment [1] concerns Human betaherpesvirus 5. Kind of experiment: Compound was tested for complete inhibition of growth rate against human cytomegalo virus. In kind it is functional.
Experiment [2] concerns Human betaherpesvirus 5. Nature of the experiment: Compound was tested for cytotoxicity against human cytomegalo virus at 100 uM; NA - no activity. In kind it is functional, organism-based.

Active and inactive are the calls of the source. The calls are words filed in the database; no cut-off is given here.

As for `Nc1nncc2c1ccn2C1O[C@H](CO)[C@@H](O)[C@H]1O` (some centres not stated), the Inhibition in the experiment on Human betaherpesvirus 5 [1] worked out at 0.043 µM. For the same compound, in the experiment with Human betaherpesvirus 5 [2], the result was inactive.
